Data taken from US12239643B2, “Therapeutic agent for inflammatory diseases, autoimmune diseases, fibrotic diseases, and cancer diseases” (MEIJI SEIKA PHARMA CO., LTD., priority 2018, dated 2025).

test system: PDE4; assay: Evaluation of PDE4 inhibitory activity, scintillation proximity assay; assay type: biochemical; settings: scintillation proximity assay; class symbols of Evaluation 1; read-out: PDE4 Inhibitory Activity (concentration for the inhibition rate of 50%, IC50), Evaluation 1
Protocol: The BDE4 inhibitory activity was measured using scintillation proximity assay (SPA) as follows. First, a test compound dissolved in dimethyl sulfoxide was diluted 1:10 in reaction buffer solution which contained 50 mM of Tris-HCl with pH 7.4, 8.3 mM of MgCl2, 1.7 mM of EGTA, and 3 mg/mL of bovine serum albumin (BSA). Then, 10 μL of the diluted solution was added in a 96-well assay plate. Moreover, 50 μL of PDE4 (enzyme preparation) diluted 1:375 in the reaction buffer solution was added, and then 40 μL of [2,8-^3H]-adenosine-3′,5′-cyclic phosphate triethylammonium salt diluted 1:1000 in the reaction buffer solution was added. The mixture was allowed to stand at room temperature for 120 minutes. Thereafter, […] of RNA binding YSi-SPA beads suspension containing ZnSO4 was added and the mixture was allowed to stand at room temperature for 15 minutes, followed by adsorption of the enzyme reaction product to the beads. After that, the radioactivity was measured using a liquid scintillation counter for a 96-well plate. The mixture without the enzyme preparation added but only the reaction buffer solution added is a blank, and the mixture with the enzyme preparation added and only dimethyl sulfoxide added instead of the test compound is a control.
In addition, the PDE4 inhibitory activity (concentration that inhibits PDE4 activity by 50%=concentration for the inhibition rate of 50% (IC50)) of the test compound was calculated from the inhibition curves based on the inhibition rates for various concentrations of the test compound.

| Structure (SMILES) | IC50 |
| --- | --- |
| COc1cc(-c2nccs2)c2oc(N3CC4CC(C3)N4)nc2c1 [Example 61, 2-(3,6-Diazabicyclo[3.1.1]heptan-3-yl)-5-methoxy-7-(thiazol-2-yl)benzo[d]oxazole] | < 0.1 µM |
| C[S+]([O-])c1cc(-c2nccs2)c2oc(N3CC4CCCC(C3)N4)nc2c1 (centres unmarked) [Example 44, 2-(3,9-Diazabicyclo[3.3.1]nonan-3-yl)-5-(methylsulfinyl)-7-(thiazol-2-yl)benzo[d]oxazole] | < 0.1 µM |
| OC(c1cc(-c2nccs2)c2oc(N3CC4CCCC(C3)N4)nc2c1)C(F)(F)F (centres unmarked) [Example 136, 1-(2-(3,9-Diazabicyclo[3.3.1]nonan-3-yl)-7-(thiazol-2-yl)benzo[d]oxazol-5-yl)-2,2,2-trifluoroethan-1-ol] | < 0.1 µM |
| FC(F)(F)Oc1c(Cl)cc(-c2ccccn2)c2oc(N3CC4CCC(C3)N4)nc12 [Example 7, 2-(3,8-Diazabicyclo[3.2.1]octan-3-yl)-5-chloro-7-(pyridin-2-yl)-4-(trifluoromethoxy)benzo[d]oxazole] | < 0.1 µM |
| COc1cc(-c2nccs2)c2oc(N3CC4CCCC(C3)N4)nc2c1 [Example 62, 2-(3,9-Diazabicyclo[3.3.1]nonan-3-yl)-5-methoxy-7-(thiazol-2-yl)benzo[d]oxazole] | < 0.1 µM |
| CC(C)(O)c1cc(-c2nccs2)c2oc(N3CC4CC(C3)N4)nc2c1 [Example 173, 2-(2-(3,6-Diazabicyclo[3.1.1]heptan-3-yl)-7-(thiazol-2-yl)benzo[d]oxazol-5-yl)propan-2-ol] | < 0.1 µM |
| COCC(O)COc1ccc(-c2nccs2)c2oc(N3CC4CCC(C3)N4)nc12 (centres unmarked) [Example 83, 1-((2-(3,8-Diazabicyclo[3.2.1]octan-3-yl)-7-(thiazol-2-yl)benzo[d]oxazol-4-yl)oxy)-3-methoxypropan-2-ol] | < 0.1 µM |
| O=C(c1cc(-c2nccs2)c2oc(N3CC4CCC(C3)N4)nc2c1)N1CCC1 [Example 97, (2-(3,8-Diazabicyclo[3.2.1]octan-3-yl)-7-(thiazol-2-yl)benzo[d]oxazol-5-yl)(azetidin-1-yl)methanone] | < 0.1 µM |
| CC(=O)Nc1ccc(-c2nccs2)c2oc(N3CC4CC(C3)N4)nc12 [Example 35, N-(2-(3,6-diazabicyclo[3.1.1]heptan-3-yl)-7-(thiazol-2-yl)benzo[d]oxazol-4-yl)acetamide] | 0.1 to 1 µM |

same assay, conditions: scintillation proximity assay; read-out: PDE4 Inhibitory Activity (Evaluation 1; concentration for the inhibition rate of 50%)

| Structure (SMILES) | IC50 |
| --- | --- |
| CC(O)c1cc(-c2nccs2)c2oc(N3CC4CCC(C3)N4)nc2c1OC(F)(F)F (centres unmarked) [Example 202, 1-(2-(3,8-Diazabicyclo[3.2.1]octan-3-yl)-7-(thiazol-2-yl)-4-(trifluoromethoxy)benzo[d]oxazol-5-yl)ethan-1-ol] | < 0.1 µM |
| COC(C)c1ccc(-c2nccs2)c2oc(N3CC4CCCC(C3)N4)nc12 (centres unmarked) [Example 243, 2-(3,9-Diazabicyclo[3.3.1]nonan-3-yl)-4-(1-methoxyethyl)-7-(thiazol-2-yl)benzo[d]oxazole] | < 0.1 µM |
| CCOC(c1ccc(-c2nccs2)c2oc(N3CC4CC(C3)N4)nc12)C(F)(F)F (centres unmarked) [Example 224, 2-(3,6-Diazabicyclo[3.1.1]heptan-3-yl)-4-(1-ethoxy-2,2,2-trifluoroethyl)-7-(thiazol-2-yl)benzo[d]oxazole] | < 0.1 µM |
| OC1(c2cc(-c3nccs3)c3oc(N4CC5CC(C4)N5)nc3c2OC(F)(F)F)CC1 [Example 269, 1-(2-(3,6-Diazabicyclo[3.1.1]heptan-3-yl)-7-(thiazol-2-yl)-4-(trifluoromethoxy)benzo[d]oxazol-5-yl)cyclopropan-1-ol] | < 0.1 µM |
| CC(C)(O)COc1ccc(-c2nccs2)c2oc(N3CC4CC(C3)N4)nc12 [Example 279, 1-((2-(3,6-Diazabicyclo[3.1.1]heptan-3-yl)-7-(thiazol-2-yl)benzo[d]oxazol-4-yl)oxy)-2-methylpropan-2-ol] | < 0.1 µM |
| CC(C)(O)C(F)(F)Oc1ccc(-c2cscn2)c2oc(N3CC4CC(C3)N4)nc12 [Example 307, 1-((2-(3,6-Diazabicyclo[3.1.1]heptan-3-yl)-7-(thiazol-4-yl)benzo[d]oxazol-4-yl)oxy)-1,1-difluoro-2-methylpropan-2-ol] | < 0.1 µM |
| CC(C)(O)COC(c1ccc(-c2nccs2)c2oc(N3CC4CC(C3)N4)nc12)C(F)(F)F (centres unmarked) [Example 255] | < 0.1 µM |
| OC(c1cc(-c2nccs2)c2oc(N3CC4CCC(C3)N4)nc2c1OC(F)(F)F)C(F)F (centres unmarked) [Example 276, 1-(2-(3,8-Diazabicyclo[3.2.1]octan-3-yl)-7-(thiazol-2-yl)-4-(trifluoromethoxy)benzo[d]oxazol-5-yl)-2,2-difluoroethan-1-ol] | < 0.1 µM |
| ON1C2CCC1CN(c1nc3c(OC(F)(F)F)c(Cl)cc(-c4nccs4)c3o1)C2 [Example 375, 3-(5-Chloro-7-(thiazol-2-yl)-4-(trifluoromethoxy)benzo[d]oxazol-2-yl)-3,8-diazabicyclo[3.2.1]octan-8-ol] | < 0.1 µM |
| OC(c1ccc(-c2nccs2)c2oc(N3CC4CCC(C3)N4O)nc12)C(F)(F)F (centres unmarked) [Example 379, 3-(7-(Thiazol-2-yl)-4-(2,2,2-trifluoro-1-hydroxyethyl)benzo[d]oxazol-2-yl)-3,8-diazabicyclo[3.2.1]octan-8-ol] | < 0.1 µM |
| CC(O)c1cc(-c2nccs2)c2oc(N3CC4CCC(C3)N4O)nc2c1OC(F)(F)F (centres unmarked) [Example 383, 3-(5-(1-Hydroxyethyl)-7-(thiazol-2-yl)-4-(trifluoromethoxy)benzo[d]oxazol-2-yl)-3,8-diazabicyclo[3.2.1]octan-8-ol] | > 1 µM |
| COC1(c2cc(-c3nccs3)c3oc(N4CC5CC(C4)N5)nc3c2OC(F)(F)F)CC1 [Example 283, 2-(3,6-Diazabicyclo[3.1.1]heptan-3-yl)-5-(1-methoxycyclopropyl)-7-(thiazol-2-yl)-4-(trifluoromethoxy)benzo[d]oxazole] | < 0.1 µM |
| CC(C)C(O)C(F)(F)Oc1ccc(-c2nccs2)c2oc(N3CC4CC(C3)N4)nc12 (centres unmarked) [Example 362, 1-((2-(3,6-Diazabicyclo[3.1.1]heptan-3-yl)-7-(thiazol-2-yl)benzo[d]oxazol-4-yl)oxy)-1,1-difluoro-3-methylbutan-2-ol] | < 0.1 µM |
| CC(O)C(F)(F)OC(c1ccc(-c2nccs2)c2oc(N3CC4CC(C3)N4)nc12)C(F)(F)F (centres unmarked) [Example 265, 1-(1-(2-(3,6-Diazabicyclo[3.1.1]heptan-3-yl)-7-(thiazol-2-yl)benzo[d]oxazol-4-yl)-2,2,2-trifluoroethoxy)-1,1-difluoropropan-2-ol] | < 0.1 µM |
| OC1(COC(c2ccc(-c3nccs3)c3oc(N4CC5CC(C4)N5)nc23)C(F)(F)F)CC1 (centres unmarked) [Example 232, 1-((1-(2-(3,6-Diazabicyclo[3.1.1]heptan-3-yl)-7-(thiazol-2-yl)benzo[d]oxazol-4-yl)-2,2,2-trifluoroethoxy)methyl)cyclopropan-1-ol] | < 0.1 µM |
| OCC(F)(F)Oc1ccc(-c2cscn2)c2oc(N3CC4CC(C3)N4)nc12 [Example 311, 2-((2-(3,6-Diazabicyclo[3.1.1]heptan-3-yl)-7-(thiazol-4-yl)benzo[d]oxazol-4-yl)oxy)-2,2-difluoroethan-1-ol] | < 0.1 µM |
| OC1(c2cc(-c3cscn3)c3oc(N4CC5CC(C4)N5)nc3c2OC(F)(F)F)CC1 [Example 299, 1-(2-(3,6-Diazabicyclo[3.1.1]heptan-3-yl)-7-(thiazol-4-yl)-4-(trifluoromethoxy)benzo[d]oxazol-5-yl)cyclopropan-1-ol] | < 0.1 µM |
